Results as given in paper PMC12298351, “Novel 3,19-(N-Phenyl-3-(4-fluorophenyl)-pyrazole) Acetal of Andrographolide Promotes Cell Cycle Arrest and Apoptosis in MDA-MB-231 Breast Cancer Cells” (Pharmaceuticals, 2025).

What was measured:
KM12 = details: KM12, Colon
COLO 205 = details: COLO 205, Colon
M14 = type: cell-based; details: M14, Melanoma
MDA-MB-231 = details: for GI50: MDA-MB-231, Breast; for Total growth inhibition (TGI) / CC50: MDA-MB-231/ATCC, Breast; for CC50: read-out: 50% lethal concentration (LC50)
EKVX = details: for Total growth inhibition (TGI): Non-Small Cell Lung; for GI50: Non-Small-Cell Lung; for CC50: read-out: 50% lethal concentration (LC50), Non-Small Cell Lung
MDA-MB-468 = details: MDA-MB-468, Breast; for CC50: read-out: 50% lethal concentration (LC50)
SNB-19 = type: cell-based; details: SNB-19, CNS
CAKI-1 = details: CAKI-1, Renal; for CC50: read-out: 50% lethal concentration (LC50)
PC-3 = details: PC-3, Prostate; for CC50: read-out: 50% lethal concentration (LC50)
BT-549 = type: cell-based; details: BT-549, Breast
IGROV1 = details: IGROV1, Ovarian; for CC50: read-out: 50% lethal concentration (LC50)
SK-MEL-5 = details: SK-MEL-5, Melanoma; for CC50: read-out: 50% lethal concentration (LC50)
U251 = details: U251, CNS
SK-OV-3 = details: SK-OV-3, Ovarian; for CC50: read-out: 50% lethal concentration (LC50)
SF-268 = details: SF-268, CNS; for CC50: read-out: 50% lethal concentration (LC50)
NCI-H23 = details: for Total growth inhibition (TGI) / CC50: NCI-H23, Non-Small Cell Lung; for GI50: NCI-H23, Non-Small-Cell Lung; for CC50: read-out: 50% lethal concentration (LC50)
MOLT-4 = details: MOLT-4, Leukemia; for CC50: read-out: 50% lethal concentration (LC50)
SK-MEL-2 = details: SK-MEL-2, Melanoma
UACC-257 = details: UACC-257, Melanoma
LOX IMVI = details: for GI50 / Total growth inhibition (TGI): Melanoma; for CC50: read-out: 50% lethal concentration (LC50), Melanoma
OVCAR-5 = details: OVCAR-5, Ovarian; for CC50: read-out: 50% lethal concentration (LC50)
RPMI-8226 = details: RPMI-8226, Leukemia; for CC50: read-out: 50% lethal concentration (LC50)
TK-10 = type: cell-based; details: TK-10, Renal
K-562 = details: K-562, Leukemia; for CC50: read-out: 50% lethal concentration (LC50)
SW-620 = details: SW-620, Colon; for CC50: read-out: 50% lethal concentration (LC50)
OVCAR-4 = type: cell-based; details: OVCAR-4, Ovarian
OVCAR-3 = details: OVCAR-3, Ovarian; for CC50: read-out: 50% lethal concentration (LC50)
T-47D = details: for GI50 / Total growth inhibition (TGI): Breast; for CC50: read-out: 50% lethal concentration (LC50), Breast
SN12C = details: for GI50 / Total growth inhibition (TGI): Renal; for CC50: read-out: 50% lethal concentration (LC50), Renal
HT29 = details: HT29, Colon; for CC50: read-out: 50% lethal concentration (LC50)
HCC-2998 = details: HCC-2998, Colon
SF-295 = details: SF-295, CNS; for CC50: read-out: 50% lethal concentration (LC50)

Compound `C=C1CCC2C3(C)COC(c4cn(-c5ccccc5)nc4-c4ccc(C)cc4)OC3CCC2(C)C1CC=C1C(=O)OCC1O` (stereo not drawn) [1i] has a GI50 (KM12) of 3.01 µM, a Total growth inhibition (TGI) (KM12) of 7.93 µM and a GI50 (COLO 205) of 1.97 µM. The Total growth inhibition (TGI) (COLO 205) was 4.5 µM, the GI50 (M14) was 1.76 µM and the Total growth inhibition (TGI) (M14) was 3.61 µM. For the same compound, the GI50 (MDA-MB-231) was 1.7 µM, the Total growth inhibition (TGI) (MDA-MB-231) was 3.28 µM and the CC50 (MDA-MB-231) was 6.33 µM. For the same compound, the Total growth inhibition (TGI) (EKVX) was 4.96 µM, the GI50 (EKVX) was 2.13 µM and the CC50 (EKVX) was over 100 µM. For the same compound, the GI50 (MDA-MB-468) was 1.85 µM, the Total growth inhibition (TGI) (MDA-MB-468) was 3.45 µM and the CC50 (MDA-MB-468) was 6.43 µM. The GI50 (SNB-19) was 1.36 µM, the GI50 (CAKI-1) was 1.71 µM and the Total growth inhibition (TGI) (CAKI-1) was 3.37 µM. It also gave a CC50 (CAKI-1) of 6.64 µM, a GI50 (PC-3) of 1.92 µM and a CC50 (PC-3) of over 100 µM. The GI50 (BT-549) was 1.2 µM, the Total growth inhibition (TGI) (BT-549) was 3.02 µM and the GI50 (IGROV1) was 3.95 µM. For the same compound, the Total growth inhibition (TGI) (IGROV1) was 12.5 µM, the CC50 (IGROV1) was over 100 µM and the GI50 (SK-MEL-5) was 1.59 µM. The Total growth inhibition (TGI) (SK-MEL-5) was 2.96 µM, the CC50 (SK-MEL-5) was 5.49 µM and the GI50 (U251) was 2.61 µM. The Total growth inhibition (TGI) (U251) was 3.12 µM, the GI50 (SK-OV-3) was 3.47 µM and the Total growth inhibition (TGI) (SK-OV-3) was 12.1 µM. The CC50 (SK-OV-3) was over 100 µM, the GI50 (SF-268) was 2.61 µM and the Total growth inhibition (TGI) (SF-268) was 7.58 µM. For the same compound, the CC50 (SF-268) was 55.4 µM, the Total growth inhibition (TGI) (NCI-H23) was 3.5 µM and the GI50 (NCI-H23) was 1.76 µM. For the same compound, the CC50 (NCI-H23) was 6.96 µM, the GI50 (MOLT-4) was 2.11 µM and the Total growth inhibition (TGI) (MOLT-4) was over 100 µM. The CC50 (MOLT-4) was over 100 µM, the GI50 (SK-MEL-2) was 1.79 µM and the Total growth inhibition (TGI) (SK-MEL-2) was 3.28 µM. For the same compound, the GI50 (UACC-257) was 1.74 µM, the Total growth inhibition (TGI) (UACC-257) was 3.47 µM and the GI50 (LOX IMVI) was 1.43 µM. The Total growth inhibition (TGI) (LOX IMVI) was 2.74 µM, the CC50 (LOX IMVI) was 5.25 µM and the GI50 (OVCAR-5) was 1.93 µM. The Total growth inhibition (TGI) (OVCAR-5) was 4.59 µM, the CC50 (OVCAR-5) was 40.5 µM and the GI50 (RPMI-8226) was 8.6 µM. For the same compound, the Total growth inhibition (TGI) (RPMI-8226) was over 100 µM, the CC50 (RPMI-8226) was over 100 µM and the GI50 (TK-10) was 1.33 µM. It also gave a GI50 (K-562) of 3.82 µM, a Total growth inhibition (TGI) (K-562) of over 100 µM and a CC50 (K-562) of over 100 µM. The GI50 (SW-620) was 5.42 µM, the CC50 (SW-620) was over 100 µM and the GI50 (OVCAR-4) was 1.92 µM. The Total growth inhibition (TGI) (OVCAR-4) was 4.27 µM, the GI50 (OVCAR-3) was 1.95 µM and the Total growth inhibition (TGI) (OVCAR-3) was 3.82 µM. It also gave a CC50 (OVCAR-3) of 7.49 µM, a GI50 (T-47D) of 1.14 µM and a Total growth inhibition (TGI) (T-47D) of 3.55 µM. It also gave a CC50 (T-47D) of over 100 µM, a GI50 (SN12C) of 1.66 µM and a Total growth inhibition (TGI) (SN12C) of 3.44 µM. For the same compound, the CC50 (SN12C) was 7.15 µM, the GI50 (HT29) was 1.9 µM and the Total growth inhibition (TGI) (HT29) was 4.58 µM. The CC50 (HT29) was over 100 µM, the GI50 (HCC-2998) was 1.63 µM and the Total growth inhibition (TGI) (HCC-2998) was 3.06 µM. For the same compound, the GI50 (SF-295) was 1.58 µM, the Total growth inhibition (TGI) (SF-295) was 2.96 µM and the CC50 (SF-295) was 5.54 µM.
Compound `C=C1CCC2C3(C)COC(c4cn(-c5ccccc5)nc4-c4ccc(F)cc4)OC3CCC2(C)C1CC=C1C(=O)OCC1O` (stereo not drawn) [1f, 3,19-(N-Phenyl-3-(4-fluorophenyl)-pyrazole) Acetal of Andrographolide] has a GI50 (KM12) of 1.84 µM, a Total growth inhibition (TGI) (KM12) of 3.59 µM and a GI50 (COLO 205) of 1.48 µM. The Total growth inhibition (TGI) (COLO 205) was 3.2 µM, the GI50 (M14) was 1.5 µM and the Total growth inhibition (TGI) (M14) was 3.23 µM. The GI50 (MDA-MB-231) was 1.68 µM, the Total growth inhibition (TGI) (MDA-MB-231) was 3.28 µM and the CC50 (MDA-MB-231) was 6.41 µM. It also gave a Total growth inhibition (TGI) (EKVX) of 4.72 µM, a GI50 (EKVX) of 2.06 µM and a CC50 (EKVX) of over 100 µM. It also gave a GI50 (MDA-MB-468) of 1.53 µM, a Total growth inhibition (TGI) (MDA-MB-468) of 2.96 µM and a CC50 (MDA-MB-468) of 5.71 µM. For the same compound, the GI50 (SNB-19) was 1.44 µM, the Total growth inhibition (TGI) (SNB-19) was 2.91 µM and the GI50 (CAKI-1) was 1.58 µM. It also gave a Total growth inhibition (TGI) (CAKI-1) of 3.17 µM, a CC50 (CAKI-1) of 6.34 µM and a GI50 (PC-3) of 1.55 µM. For the same compound, the Total growth inhibition (TGI) (PC-3) was 4.04 µM, the CC50 (PC-3) was over 100 µM and the GI50 (BT-549) was 1.31 µM. It also gave a Total growth inhibition (TGI) (BT-549) of 3.18 µM, a GI50 (IGROV1) of 1.84 µM and a Total growth inhibition (TGI) (IGROV1) of 4.75 µM. The CC50 (IGROV1) was over 100 µM, the GI50 (SK-MEL-5) was 1.62 µM and the Total growth inhibition (TGI) (SK-MEL-5) was 2.98 µM. For the same compound, the CC50 (SK-MEL-5) was 5.47 µM, the GI50 (U251) was 2.36 µM and the Total growth inhibition (TGI) (U251) was 5.63 µM. The GI50 (SK-OV-3) was 1.88 µM, the Total growth inhibition (TGI) (SK-OV-3) was 5.48 µM and the CC50 (SK-OV-3) was 30.7 µM. The GI50 (SF-268) was 2.36 µM, the Total growth inhibition (TGI) (SF-268) was 5.63 µM and the CC50 (SF-268) was 25.7 µM. It also gave a Total growth inhibition (TGI) (NCI-H23) of 3.32 µM, a GI50 (NCI-H23) of 1.7 µM and a CC50 (NCI-H23) of 6.46 µM. It also gave a GI50 (MOLT-4) of 0.6 µM, a CC50 (MOLT-4) of over 100 µM and a GI50 (SK-MEL-2) of 1.69 µM. For the same compound, the Total growth inhibition (TGI) (SK-MEL-2) was 3.1 µM, the GI50 (UACC-257) was 1.65 µM and the Total growth inhibition (TGI) (UACC-257) was 3.18 µM. For the same compound, the GI50 (LOX IMVI) was 1.32 µM, the Total growth inhibition (TGI) (LOX IMVI) was 2.59 µM and the CC50 (LOX IMVI) was 5.09 µM. The GI50 (OVCAR-5) was 1.74 µM, the Total growth inhibition (TGI) (OVCAR-5) was 3.88 µM and the CC50 (OVCAR-5) was 8.66 µM. The GI50 (RPMI-8226) was 0.49 µM, the Total growth inhibition (TGI) (RPMI-8226) was over 100 µM and the CC50 (RPMI-8226) was over 100 µM. The GI50 (TK-10) was 1.27 µM, the Total growth inhibition (TGI) (TK-10) was 2.55 µM and the GI50 (K-562) was 2.34 µM. It also gave a Total growth inhibition (TGI) (K-562) of over 100 µM, a CC50 (K-562) of over 100 µM and a GI50 (SW-620) of 4.49 µM. The Total growth inhibition (TGI) (SW-620) was over 100 µM, the CC50 (SW-620) was over 100 µM and the GI50 (OVCAR-4) was 1.75 µM. The Total growth inhibition (TGI) (OVCAR-4) was 4.08 µM, the GI50 (OVCAR-3) was 2.02 µM and the Total growth inhibition (TGI) (OVCAR-3) was 3.71 µM. For the same compound, the CC50 (OVCAR-3) was 6.79 µM, the GI50 (T-47D) was 1.19 µM and the Total growth inhibition (TGI) (T-47D) was 2.97 µM. It also gave a CC50 (T-47D) of 7.44 µM, a GI50 (SN12C) of 1.55 µM and a Total growth inhibition (TGI) (SN12C) of 3.27 µM. For the same compound, the CC50 (SN12C) was 6.93 µM, the GI50 (HT29) was 2.38 µM and the Total growth inhibition (TGI) (HT29) was 7.63 µM. It also gave a CC50 (HT29) of 93.9 µM, a GI50 (HCC-2998) of 1.76 µM and a Total growth inhibition (TGI) (HCC-2998) of 3.21 µM. The GI50 (SF-295) was 1.55 µM, the Total growth inhibition (TGI) (SF-295) was 2.92 µM and the CC50 (SF-295) was 5.49 µM.
